In patent publication US12234238B2, “Antimicrobial compounds and methods of making and using the same” (BIOVERSYS AG, priority 2017, dated 2025):

Assays:
[1] = test system: Eschericia coli (E. coli) strain ATCC25922; assay: standard microdilution assay to determine minimum inhibitory concentrations (MICs), E. coli; format: cell-based; conditions: Escherichia coli
Experimental: (§1) The in vitro activity of the compounds of the present disclosure can be determined. Antimicrobial testing is typically performed to determine the minimum inhibitory concentration (MIC). Minimum inhibitory concentrations (MICs) are determined by the microdilution method in a final volume of 100 μl according to protocols outlined by The Clinical and Laboratory Standards Institute (CLSI). Performance standards for reference strains are assessed within the same experimental design to maintain quality control. See, for example, Clinical Laboratory Standards Institute: Methods for dilution antimicrobial susceptibility tests for bacteria that grow aerobically M7-A8. Approved Standard-Eighth Edition. Wayne, PA: CLSI; December 2008: and Clinical Laboratory Standards Institute: Performance Standards for Antimicrobial Susceptibility Testing M100-S20; Approved Standard-Twentieth Edition. Wayne, PA: CLSI; June 2010. The compounds of the present disclosure were tested for antimicrobial activity. The Compounds 1-122 were run against Eschericia coli (E. coli) strain ATCC25922 and against Staphylococcus aureus (S. aureus) 11540 strain using a standard microdilution assay to determine minimum inhibitory concentrations (MICs). […] It will be recognized by one skilled in the art that the compounds can be assessed against other bacterial organisms and that the presentation of data for activity against Eschericia coli and Staphylococcus aureus are illustrative and in no way is intended to limit the scope of the present disclosure. The compounds of the present disclosure can be assayed against a range of other microorganisms depending upon the performance activity desired to be gathered. Furthermore, the “+” and “−” representation and the selection of a cutoff value of 16 micrograms/mL is also illustrative and in no way is intended to limit the scope of the present disclosure.

[2] = test system: Staphylococcus aureus (S. aureus) 11540 strain; assay: standard microdilution assay to determine minimum inhibitory concentrations (MICs), S. aureus; format: cell-based
Experimental: as §1

Row | SMILES | MIC [1] | MIC [2]
1 | COCCN1[C@H](CCSC(=N)N)CCC[C@H]1c1ccc(-n2cc3cc(-c4cc(CCC[C@H](C)N)cc(Cl)c4F)[nH]c3nc2=O)cc1 [Compound 97] | > 16 µg/mL | ≤ 16 µg/mL
2 | C[C@H](N)CCCc1cc(Cl)c(F)c(-c2cc3cn(-c4ccc([C@@H]5CCC[C@@H](CCSC(=N)N)N5CCF)cc4)c(=O)nc3[nH]2)c1 [Compound 98] | ≤ 16 µg/mL | ≤ 16 µg/mL
3 | CC(N)c1cc(Cl)c(F)c(-c2cc3cn(-c4ccc([C@@H]5CCC[C@@H](CCSC(=N)N)N5)cc4)c(=O)nc3[nH]2)c1 (stereo partly shown) [Compound 54] | ≤ 16 µg/mL | ≤ 16 µg/mL
4 | CCc1cc(CCC[C@H](C)N)cc(-c2cc3cn(-c4ccc([C@@H]5CCC[C@@H](CCSC(=N)N)N5)cc4)c(=O)nc3[nH]2)c1Cl [Compound 82] | ≤ 16 µg/mL | ≤ 16 µg/mL
5 | N=C(N)SCC[C@@H]1CCC[C@@H](c2ccc(-n3cc4cc(C5C[C@@H](N)CN5)[nH]c4nc3=O)cc2)N1 (stereo partly shown) [Compound 88] | ≤ 16 µg/mL | ≤ 16 µg/mL
6 | C[C@H](N)CCCc1cc(Cl)c(F)c(-c2cc3cn(-c4ccc([C@@H]5CC=CCN5CCCSC(=N)N)cc4)c(=O)nc3[nH]2)c1 [Compound 14] | ≤ 16 µg/mL | ≤ 16 µg/mL
7 | C[C@H](N)CCCc1cc(Cl)c(F)c(-c2cc3cn(-c4ccc([C@H]5C[C@H](CCSC(=N)N)CCN5C)cc4)c(=O)nc3[nH]2)c1 [Compound 111] | ≤ 16 µg/mL | ≤ 16 µg/mL
8 | N=C(N)SCC[C@@H]1CCC[C@@H](c2ccc(-n3cc4cc(-c5cc(CCC[C@@H](N)C6CC6)cc(Cl)c5F)[nH]c4nc3=O)cc2)N1CCCF [Compound 5] | ≤ 16 µg/mL | ≤ 16 µg/mL
9 | N=C(N)SCCCN1CC=CC[C@H]1c1ccc(-n2cc3cc(-c4cc(CCC[C@@H](N)C5CC5)cc(Cl)c4F)[nH]c3nc2=O)cc1 [Compound 15] | ≤ 16 µg/mL | ≤ 16 µg/mL
10 | N=C(N)SCC[C@@H]1CCC[C@@H](c2ccc(-n3cc4cc(-c5cc(CCC[C@@H](N)CO)cc(Cl)c5F)[nH]c4nc3=O)cc2)N1 [Compound 8] | ≤ 16 µg/mL | ≤ 16 µg/mL
11 | C[C@@H](N)CCCN1C(c2cc3cn(-c4ccc([C@@H]5CCC[C@@H](CCSC(=N)N)N5)cc4)c(=O)nc3[nH]2)CC[C@@H]1c1ccccc1 (stereo partly shown) [Compound 77] | ≤ 16 µg/mL | > 16 µg/mL
12 | C[C@H](N)CCCc1cc(Cl)c(F)c(-c2cc3cn(-c4ccc([C@@H]5CCC[C@@H](CCSC(=N)N)N5C)cc4)c(=O)nc3[nH]2)c1 [Compound 42] | ≤ 16 µg/mL | ≤ 16 µg/mL
13 | C[C@H](N)CCCc1cc(Cl)c(F)c(-c2cc3cn(-c4ccc([C@@H]5CCC[C@@H](CCSC(=N)N)N5CCCO)cc4)c(=O)nc3[nH]2)c1 [Compound 6] | ≤ 16 µg/mL | ≤ 16 µg/mL
14 | CC(=O)c1cc(CCC[C@H](C)N)cc(-c2cc3cn(-c4ccc([C@@H]5CCC[C@@H](CCSC(=N)N)N5)cc4)c(=O)nc3[nH]2)c1 [Compound 92] | ≤ 16 µg/mL | ≤ 16 µg/mL
15 | CCc1cc(CCC[C@H](C)N)cc(-c2cc3cn(-c4ccc([C@@H]5CCC[C@@H](CCSC(=N)N)N5)cc4)c(=O)nc3[nH]2)c1F [Compound 85] | ≤ 16 µg/mL | ≤ 16 µg/mL
16 | N=C(N)SCC[C@@H]1CCC[C@@H](c2ccc(-n3cc4cc(-c5cc(CCC[C@@H](N)COC(=O)c6ccccc6)cc(Cl)c5F)[nH]c4nc3=O)cc2)N1 [Compound 10] | ≤ 16 µg/mL | ≤ 16 µg/mL
17 | C[C@H](N)CCCN1C=C(c2cc3cn(-c4ccc([C@@H]5CCC[C@@H](CCSC(=N)N)N5)cc4)c(=O)nc3[nH]2)CCC1 [Compound 58] | ≤ 16 µg/mL | ≤ 16 µg/mL
18 | C=CCSC(=N)NCC[C@@H]1CCC[C@@H](c2ccc(-n3cc4cc(-c5cc(CCC[C@H](C)N)cc(Cl)c5F)[nH]c4nc3=O)cc2)N1 [Compound 122] | ≤ 16 µg/mL | ≤ 16 µg/mL
19 | C=C[C@H](N)CCCc1cc(Cl)c(F)c(-c2cc3cn(-c4ccc([C@@H]5CCC[C@@H](CCSC(=N)N)N5C)cc4)c(=O)nc3[nH]2)c1 [Compound 50] | ≤ 16 µg/mL | ≤ 16 µg/mL
20 | C=CCCN1[C@H](CCSC(=N)N)CCC[C@H]1c1ccc(-n2cc3cc(-c4cc(CCC[C@H](C)N)cc(Cl)c4F)[nH]c3nc2=O)cc1 [Compound 94] | ≤ 16 µg/mL | ≤ 16 µg/mL
21 | CC(C[C@@H]1CCC[C@@H](c2ccc(-n3cc4cc(-c5cc(CCC[C@H](C)N)cc(Cl)c5F)[nH]c4nc3=O)cc2)N1)SC(=N)N (stereo partly shown) [Compound 78] | ≤ 16 µg/mL | ≤ 16 µg/mL
22 | C[C@@H](N)CCCN1C[C@@H](O)CC1c1cc2cn(-c3ccc([C@@H]4CCC[C@@H](CCSC(=N)N)N4)cc3)c(=O)nc2[nH]1 (stereo partly shown) [Compound 64] | ≤ 16 µg/mL | ≤ 16 µg/mL
23 | CN[C@@H]1CC(c2cc3cn(-c4ccc([C@@H]5CCC[C@@H](CCSC(=N)N)N5)cc4)c(=O)nc3[nH]2)N(CCC[C@@H](C)N)C1 (stereo partly shown) [Compound 66] | ≤ 16 µg/mL | ≤ 16 µg/mL
24 | COC[C@H](N)CCCc1cc(Cl)c(F)c(-c2cc3cn(-c4ccc([C@@H]5CCC[C@@H](CCSC(=N)N)N5)cc4)c(=O)nc3[nH]2)c1 [Compound 80] | ≤ 16 µg/mL | ≤ 16 µg/mL
25 | C[C@H](N)CCCc1cc(Cl)c(F)c(-c2cc3cn(-c4ccc([C@@H]5CCC(O)[C@@H](CCSC(=N)N)N5C)cc4)c(=O)nc3[nH]2)c1 (stereo partly shown) [Compound 106] | ≤ 16 µg/mL | ≤ 16 µg/mL
26 | C[C@H](N)CCCc1cc(-c2cc3cn(-c4ccc([C@@H]5CCC[C@@H](CCSC(=N)N)N5)cc4)c(=O)nc3[nH]2)cc(C2CCCC2)c1 [Compound 100] | ≤ 16 µg/mL | ≤ 16 µg/mL
27 | C[C@H](O)CCCc1cc(Cl)c(F)c(-c2cc3cn(-c4ccc([C@@H]5CCC[C@@H](CCSC(=N)N)N5)cc4)c(=O)nc3[nH]2)c1 [Compound 28] | ≤ 16 µg/mL | ≤ 16 µg/mL

Other lines, results leading:

Row | MIC [1] | MIC [2] | SMILES
28 | ≤ 16 µg/mL | ≤ 16 µg/mL | N[C@H](CCCc1cc(Cl)c(F)c(-c2cc3cn(-c4ccc([C@@H]5CCC[C@@H](CCSC6=NCCN6)N5)cc4)c(=O)nc3[nH]2)c1)C1CC1 [Compound 3]
29 | ≤ 16 µg/mL | ≤ 16 µg/mL | CC(C)c1cc(CCC[C@H](C)N)cc(-c2cc3cn(-c4ccc([C@@H]5CCC[C@@H](CCSC(=N)N)N5)cc4)c(=O)nc3[nH]2)c1F [Compound 84]
30 | ≤ 16 µg/mL | ≤ 16 µg/mL | C=C[C@H](N)CCCc1cc(Cl)c(F)c(-c2cc3cn(-c4ccc([C@@H]5CCC[C@@H](CCSC(=N)N)N5)c(F)c4)c(=O)nc3[nH]2)c1 [Compound 36]
31 | ≤ 16 µg/mL | ≤ 16 µg/mL | C[C@@H](N)CCCN1CC(C)(C)CC1c1cc2cn(-c3ccc([C@@H]4CCC[C@@H](CCSC(=N)N)N4)cc3)c(=O)nc2[nH]1 (stereo partly shown) [Compound 74]
32 | ≤ 16 µg/mL | ≤ 16 µg/mL | C[C@H](N)CCCc1cc(Cl)c(F)c(-c2cc3cn(-c4ccc([C@@H]5CCC[C@@H](CCSC(=N)N)N5CCCF)cc4)c(=O)nc3[nH]2)c1 [Compound 4]
33 | ≤ 16 µg/mL | ≤ 16 µg/mL | C[C@H](N)CCCc1cc(Cl)c(F)c(-c2cc3cn(-c4ccc([C@@H]5C[C@@H](CCSC(=N)N)CN5)cc4)c(=O)nc3[nH]2)c1 [Compound 116]
34 | ≤ 16 µg/mL | ≤ 16 µg/mL | C[C@@H](N)Cc1cc(Cl)c(F)c(-c2cc3cn(-c4ccc([C@@H]5CCC[C@@H](CCSC(=N)N)N5)cc4)c(=O)nc3[nH]2)c1 [Compound 24]
35 | ≤ 16 µg/mL | ≤ 16 µg/mL | C=C[C@H](N)CCCc1cc(Cl)c(F)c(-c2cc3cn(-c4ccc([C@@H]5CCC[C@@H](CCSC(=N)N)N5)cc4)c(=O)nc3[nH]2)c1 [Compound 45]
36 | ≤ 16 µg/mL | ≤ 16 µg/mL | C[C@H](N)CCc1cc(Cl)c(F)c(-c2cc3cn(-c4ccc([C@@H]5CCC[C@@H](CCSC(=N)N)N5)cc4)c(=O)nc3[nH]2)c1 [Compound 37]
37 | ≤ 16 µg/mL | ≤ 16 µg/mL | N=C(N)SCC[C@@H]1CCC[C@@H](c2ccc(-n3cc4cc(-c5cc(CCC[C@@H](N)C6CC6)cc(Cl)c5F)[nH]c4nc3=O)cc2)N1CCCO [Compound 7]
38 | ≤ 16 µg/mL | ≤ 16 µg/mL | C[C@H](N)CCCc1cc(Cl)c(F)c(-c2cc3cn(-c4ccc([C@@H]5CCCC[C@@H](CCSC(=N)N)N5)cc4)c(=O)nc3[nH]2)c1 [Compound 52]
39 | ≤ 16 µg/mL | ≤ 16 µg/mL | C[C@H](N)CCCN1CC=C(c2cc3cn(-c4ccc([C@@H]5CCC[C@@H](CCSC(=N)N)N5)cc4)c(=O)nc3[nH]2)C1 [Compound 75]
40 | ≤ 16 µg/mL | ≤ 16 µg/mL | C[C@H](N)CCCc1cc(Cl)c(F)c(-c2cc3cn(-c4ccc([C@H](C)NCC[C@H](C)SC(=N)N)cc4)c(=O)nc3[nH]2)c1 [Compound 26]
41 | ≤ 16 µg/mL | ≤ 16 µg/mL | N=C(N)SCC[C@@H]1CCC[C@@H](c2ccc(-n3cc4cc(-c5cc(CCC[C@@H](N)C6CC6)cc(Cl)c5F)[nH]c4nc3=O)cc2F)N1 [Compound 25]
42 | ≤ 16 µg/mL | ≤ 16 µg/mL | C[C@H](N)Cc1cc(Cl)c(F)c(-c2cc3cn(-c4ccc([C@@H]5CCC[C@@H](CCSC(=N)N)N5)cc4)c(=O)nc3[nH]2)c1 [Compound 23]
43 | ≤ 16 µg/mL | ≤ 16 µg/mL | C[C@H](N)CCCc1cc(Cl)c(F)c(-c2cc3cn(-c4ccc([C@@H]5CCC[C@@H](CCSC(=N)N)N5)c(F)c4)c(=O)nc3[nH]2)c1 [Compound 21]
44 | ≤ 16 µg/mL | ≤ 16 µg/mL | CNC(=N)SCC[C@@H]1CCC[C@@H](c2ccc(-n3cc4cc(-c5cc(CCC[C@H](C)N)cc(Cl)c5F)[nH]c4nc3=O)cc2)N1 [Compound 41]
